pKi: −log10 of the molar value. Values after ≈ are worked out from the molar mass of the structure shown. Like-named read-outs stand apart in the source and are kept apart here.
How the values were obtained:
IMP-1 = IMP-1 (Serratia marcescens, UniProt P52699); assay: Inhibition constant (Ki) measurement test, IMP-1; assay type: biochemical
Protocol: (§1) The inhibition constant (Ki) measurement test was performed in the following manner. The inhibition constant (Ki) was measured using various metallo-β-lactamases (final concentration: 10 nM). The imipenem decomposition activity (Δabs/min) at each point under the conditions of absorbance: 298 nm and temperature: 30° C. was measured by varying the concentration of imipenem as a substrate and the concentrations of test substances (compounds A to E) as inhibitors. Each measured value was fitted to the Lineweaver-Burk plot equation to calculate Ki.
(§2) The test was performed in the same manner as in Test Example 6, except that X2a, X2b, X2c, X2d, X3a, and X4 were used as test substances (inhibitors).

NDM-1 = NDM-1 (Klebsiella pneumoniae, UniProt C7C422); assay: Inhibition constant (Ki) measurement test, NDM-1; assay type: biochemical
Chain of NDM-1 (C7C422 29-270, looked up, species assumed): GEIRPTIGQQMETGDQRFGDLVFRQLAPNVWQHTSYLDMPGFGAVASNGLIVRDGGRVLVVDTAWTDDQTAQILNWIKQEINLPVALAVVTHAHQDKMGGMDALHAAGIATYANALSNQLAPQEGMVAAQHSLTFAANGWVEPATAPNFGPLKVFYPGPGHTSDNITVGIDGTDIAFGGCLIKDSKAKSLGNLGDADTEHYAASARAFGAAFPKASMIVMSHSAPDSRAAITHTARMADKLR
Protocol: as §1, §2

VIM-2 = VIM-2 (Escherichia coli, UniProt Q5U7L7); assay: Inhibition constant (Ki) measurement test, VIM-2; assay type: biochemical
Protocol: as §1, §2

[1] = test system: β-lactamase-producing bacteria; assay: Drug susceptibility tests, summary statements over all strains; assay type: cell-based, E. coli; settings: addition of the compound
Protocol: (§3) Plates for drug susceptibility test measurement were prepared by using 96- or 384-well U-bottom plates, a Mueller-Hinton liquid medium, and antimicrobial drugs (ceftazidime (CAZ), imipenem (IPM), meropenem (MPM), doripenem (DPM), and biapenem (BPM)). A 1/2 antimicrobial drug dilution series was made up to well 11 of, for example, a 96-well U-bottom plate so that the leftmost well 1 of row A contained an antimicrobial drug at the maximum concentration, the antimicrobial drug concentration in well 2 to the right of well 1 was 1/2 of the maximum concentration, the antimicrobial drug concentration in well 3 to the right of well 2 was 1/4 of the maximum concentration, and so on. […] An antimicrobial drug dilution series was made in each of rows B and C in the same manner as in row A. Further, 10 μg/mL and 50 μg/mL of a test substance (compound A) were added to row B and row C, respectively (FIG. 1).
(§4) Bacteria into which a plasmid encoding a class B β-lactamase (metallo-β-lactamase (MBL): NDM-1, or VIM-2) was introduced (pBCSK (+)/E. coli DH5a) were used as test bacteria. The test bacteria were adjusted to 10^8 cfu/mL with a Mueller-Hinton medium. Further, the test bacteria were diluted 10-fold with a Mueller-Hinton medium (10^7 cfu/mL). 5 μl of the test bacteria was collected and inoculated into the plates for drug susceptibility test measurement. After overnight culture at 35° C., the growth of the test bacteria was visually checked. The concentration of the antimicrobial drug in a well containing the lowest concentration of the antimicrobial drug among the wells in which no growth of the test bacteria was confirmed was defined as the minimal inhibitory concentration value (FIG. 1).

[2] = test system: bacteria into which a plasmid encoding NDM-1 was introduced (pBCSK (+)/E. coli DH5a); assay: Drug susceptibility test (MIC), NDM-1-producing strain; assay type: cell-based; settings: for Meropenem MIC NDM-1-producing strain: MIC of meropenem with inhibitor 10 μg/mL
Protocol: as §3, §4
(§5) The drug susceptibility test was performed in the same manner as in Test Example 1, except that compounds A to C and E to I were used as test substances.
(§6) The test was performed in the same manner as in Test Example 1, except that X2a, X2b, X2c, X2d, X3a, and X4 were used as test substances (inhibitors). The inhibitor concentration was 10 μg/mL.

[3] = test system: bacteria into which a plasmid encoding IMP-1 was introduced (pBCSK (+)/E. coli DH5a); assay: Drug susceptibility test (MIC), IMP-1-producing strain; assay type: cell-based; settings: for Meropenem MIC IMP1-producing strain: MIC of meropenem with inhibitor 10 μg/mL; for MIC: Escherichia coli
[4] = test system: bacteria into which a plasmid encoding VIM-2 was introduced (pBCSK (+)/E. coli DH5a); assay: Drug susceptibility test (MIC), VIM-2-producing strain; assay type: cell-based; settings: for Ceftazidime MIC VIM-2-producing strain: MIC of ceftazidime with inhibitor 10 μg/mL
Protocol: as §3, §4, §5, §6

β-lactamase = assay: Inhibition constant (Ki) tests, summary statements over all enzymes; assay type: biochemical
Protocol: as §1, §2

[5] = test system: bacteria (K. pneumoniae) in which a plasmid encoding NDM and VIM was introduced; assay: Mouse abdominal infection model, K. pneumoniae NDM and VIM strain; assay type: in vivo, mice; settings: antimicrobial drug 2 mg/kg or 8 mg/kg, test substance 10 mg/kg
Protocol: The laboratory strain grown overnight on a Mueller-Hinton agar medium was scraped with a sterile swab, suspended in physiological saline, adjusted to 2-5×10^8 CFU/mL, and mixed with an equal amount of a 10% mucin solution (1-2.5×10^8 CFU/mL) to prepare a bacterial liquid. Mice (Crl:CD1(ICR), male, 4 weeks old (Charles River Laboratories Japan, Inc.)) acclimated for 4 days after arrival were weighed, and then infected by intraperitoneal administration of 250 μL of the prepared bacterial liquid per mouse. An antimicrobial drug (meropenem trihydrate (WAKO 137-15674)) and the test substance were dissolved in physiological saline. A first intraperitoneal administration of the antimicrobial drug (0.2 mg/kg) and/or the test substance (100 mg/kg) was performed 1 hour after infection. A second administration was performed 3 hours after infection, in the same manner as the first administration (up to this point, day 0).
The animal study was performed in the same manner as in Test Example 12, except that in addition to a strain of Escherichia coli in which a plasmid encoding a class B lactamase (IMP-1) was introduced, bacteria (K. pneumoniae) in which a plasmid encoding NDM and VIM was introduced were used as a laboratory strain, compound I was administered as a test substance, […], and the dosage of the test substance was 10 mg/kg. […]

[6] = test system: Empty vector (no class B lactamase produced), pBCSK (+)/E. coli DH5a; assay: Drug susceptibility test (MIC), empty vector strain; assay type: cell-based; settings: Escherichia coli, read-out: MIC MPM
[7] = imipenem substrate, enzyme 10 nM, 30° C., Lineweaver-Burk, read-out: Inhibition constant Ki IMP-1
[8] = imipenem substrate, enzyme 10 nM, 30° C., Lineweaver-Burk, read-out: Inhibition constant Ki NDM-1
[9] = imipenem substrate, enzyme 10 nM, 30° C., Lineweaver-Burk, read-out: Inhibition constant Ki VIM-2
[10] = Test Example 11, same manner as Test Example 6, read-out: Enzymatic Inhibition Effect Ki IMP-1
[11] = Test Example 11, same manner as Test Example 6, read-out: Enzymatic Inhibition Effect Ki NDM-1
[12] = Test Example 11, same manner as Test Example 6, read-out: Enzymatic Inhibition Effect Ki VIM-2
[13] = meropenem alone, no test substance added, Table 2

Chain of IMP-1 (P52699 19-246, looked up, species assumed): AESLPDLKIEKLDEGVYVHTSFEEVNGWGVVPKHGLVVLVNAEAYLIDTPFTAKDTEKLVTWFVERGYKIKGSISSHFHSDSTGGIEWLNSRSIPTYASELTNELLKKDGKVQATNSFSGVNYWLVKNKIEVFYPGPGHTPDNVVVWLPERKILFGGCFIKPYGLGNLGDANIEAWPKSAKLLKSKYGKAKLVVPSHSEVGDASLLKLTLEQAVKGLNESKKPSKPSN

Row | Compound | pKi (IMP-1; [7]) | pKi (NDM-1; [8]) | pKi (VIM-2; [9]) | effect on MICs of the antimicrobial drugs (statement on Tables 1, 2, 4) [1] | Meropenem MIC NDM-1-producing strain [2] [µg/mL] | Meropenem MIC IMP1-producing strain [3] [µg/mL] | Ceftazidime MIC VIM-2-producing strain [4] [µg/mL] | pKi (IMP-1; [10]) | β-lactamase activity inhibition (statement on Tables 2, 5) (β-lactamase) | pKi (NDM-1; [11]) | pKi (VIM-2; [12]) | survival rate (FIG. 13) [5] | MIC ([2]; Escherichia coli, read-out: Meropenem MIC NDM-1-producing strain, No inhibitor) [µg/mL] | MIC NDM-1 meropenem, None [2, 13] [mg I^−1] | MIC [6] [µg/mL] | MIC ([3]; read-out: MIC MPM) [µg/mL] | MIC ([3]; read-out: Meropenem MIC IMP1-producing strain, No inhibitor) [µg/mL] | MIC IMP-1 meropenem, None [3, 13] [mg I^−1] | MIC ([4]; Escherichia coli, read-out: MIC MPM) [µg/mL]
1 | CCCc1oc(CCC)c(S(N)(=O)=O)c1C(=O)O [Compound G] | 6.42 | 6.54 | 6.34 | – | – | – | – | – | – | – | – | – | – | – | – | – | – | – | –
2 | NS(=O)(=O)c1c(C2CCCC2)oc(C2CCCC2)c1C(=O)O [Compound H] | 5.90 | 6.74 | 6.12 | – | – | – | – | – | – | – | – | – | – | – | – | – | – | – | –
3 | CCc1c(C(=O)O)c(S(N)(=O)=O)c(C)n1C [Compound X2a] | – | – | – | decreases the MICs | 0.0625 | 0.031 | 1 | 5.75 | inhibits β-lactamase activity | 5.74 | 7.64 | – | – | – | – | – | – | – | –
4 | CCc1c(S(N)(=O)=O)c(C(=O)O)c(C)n1C [Compound X2b] | – | – | – | decreases the MICs | 0.0625 | 0.031 | 1 | 6.01 | inhibits β-lactamase activity | 5.76 | 7.00 | – | – | – | – | – | – | – | –
5 | CCc1c(C(=O)O)c(S(N)(=O)=O)c(-c2ccccc2)n1C [Compound X2c] | – | – | – | decreases the MICs | 0.5 | 0.031 | 1 | 5.91 | inhibits β-lactamase activity | 5.82 | 7.72 | – | – | – | – | – | – | – | –
6 | CCc1c(S(N)(=O)=O)c(C(=O)O)c(-c2ccccc2)n1C [Compound X2d] | – | – | – | decreases the MICs | 0.0625 | 0.031 | 1 | 6.96 | inhibits β-lactamase activity | 7.10 | 7.48 | notably improved | – | – | – | – | – | – | –
7 | CCc1c(C(=O)O)c(S(N)(=O)=O)c(CC)n1N [Compound X3a] | – | – | – | decreases the MICs | 0.5 | 0.031 | 4 | 4.67 | inhibits β-lactamase activity | 4.66 | 5.71 | – | – | – | – | – | – | – | –
8 | CCc1c(C(=O)O)c(S(N)(=O)=O)c(C(C)C)n1C [Compound X4] | – | – | – | decreases the MICs | 0.5 | 0.031 | 1 | 6.05 | inhibits β-lactamase activity | 5.37 | 7.77 | – | – | – | – | – | – | – | –
9 | C[C@@H](O)[C@H]1C(=O)N2C(C(=O)O)=C(S[C@@H]3CN[C@H](C(=O)N(C)C)C3)[C@H](C)[C@H]12 [MPM, meropenem, reference compound] | – | – | – | – | – | – | – | – | – | – | – | – | 4 (≈ 10.4 µM) | 64 | 0.016 (≈ 0.0417 µM) | 0.5 (≈ 1.3 µM) | 2 (≈ 5.22 µM) | 1 | 0.063 (≈ 0.164 µM)

Reference: patent US11497731B2, “β-lactamase inhibitor” (NATIONAL UNIVERSITY CORPORATION TOKAI NATIONAL HIGHER …, priority 2018, dated 2022)
